In the test the target is T1, human mGlu 5a receptor (Homo sapiens, UniProt P41594).
T1 construct: expressed in transfected cells; host or cells: EBNA cells (transient transfection); cell membrane homogenates
As to the kind of experiment: [3H]MPEP competition binding on membranes of EBNA cells transiently transfected with human mGlu 5a receptor. The following applies: displacement of [3H]MPEP (2 nM), 1 h at 4° C. The procedure:
The pharmacological activity of the compounds was tested using the following method: For binding experiments, cDNA encoding human mGlu 5a receptor was transiently transfected into EBNA cells using a procedure described by Schlaeger and Christensen [Cytotechnology 15:1-13 (1998)]. Cell membrane homogenates were stored at −80° C. until the day of assay where upon they were thawed and resuspended and polytronized in 15 mM Tris-HCl, 120 mM NaCl, 100 mM KCl, 25 mM CaCl2, 25 mM MgCl2 binding buffer at pH 7.4 to a final assay concentration of 20 μg protein/well.
Saturation isotherms were determined by addition of twelve [^3H]MPEP concentrations (0.04-100 nM) to these membranes (in a total volume of 200 μl) for 1 h at 4° C. Competition experiments were performed with a fixed concentration of [^3H]MPEP (2 nM), and IC50 values of test compounds evaluated using […] (0.3-10,000 nM). Incubations were performed for 1 h at 4° C.
At the end of the incubation, membranes were filtered onto unifilter (96-well white microplate with bonded GF/C filter preincubated 1 h in 0.1% PEI in wash buffer, Packard BioScience, Meriden, Conn.) with a Filtermate 96 harvester (Packard BioScience) and washed 3 times with cold 50 mM Tris-HCl, pH 7.4 buffer. Nonspecific binding was measured in the presence of 10 μM MPEP. The radioactivity on the filter was counted (3 min) on a Packard Top-count microplate scintillation counter with quenching correction after addition of 45 μl of microscint 40 (Canberra Packard S.A., Zürich, Switzerland) and shaking for 20 min.
The inhibition (antagonists) curves were fitted with a four parameter logistic equation giving IC50, and Hill coefficient using iterative non linear curve fitting software (Xcel fit).
For binding experiments the Ki values of the compounds tested are given. The Ki value is defined by the following formula: Ki=IC50/[1+L/Kd] in which the IC50 values are these concentrations of the compounds tested which cause 50% inhibition of the competing radioligand ([^3H]MPEP). L is the concentration of radioligand used in the binding experiment and the Kd value of the radioligand is empirically determined for each batch of membranes prepared.

Drawing on US7947685B2, “Pyrazine-2-carboxyamide derivatives” (Hoffmann-La Roche Inc., priority 2005, dated 2011), this text covers Ki for five compounds.

Molecules are shown by their SMILES.

T1 sequence (P41594 21-1180 isoform P41594-2 limits assumed): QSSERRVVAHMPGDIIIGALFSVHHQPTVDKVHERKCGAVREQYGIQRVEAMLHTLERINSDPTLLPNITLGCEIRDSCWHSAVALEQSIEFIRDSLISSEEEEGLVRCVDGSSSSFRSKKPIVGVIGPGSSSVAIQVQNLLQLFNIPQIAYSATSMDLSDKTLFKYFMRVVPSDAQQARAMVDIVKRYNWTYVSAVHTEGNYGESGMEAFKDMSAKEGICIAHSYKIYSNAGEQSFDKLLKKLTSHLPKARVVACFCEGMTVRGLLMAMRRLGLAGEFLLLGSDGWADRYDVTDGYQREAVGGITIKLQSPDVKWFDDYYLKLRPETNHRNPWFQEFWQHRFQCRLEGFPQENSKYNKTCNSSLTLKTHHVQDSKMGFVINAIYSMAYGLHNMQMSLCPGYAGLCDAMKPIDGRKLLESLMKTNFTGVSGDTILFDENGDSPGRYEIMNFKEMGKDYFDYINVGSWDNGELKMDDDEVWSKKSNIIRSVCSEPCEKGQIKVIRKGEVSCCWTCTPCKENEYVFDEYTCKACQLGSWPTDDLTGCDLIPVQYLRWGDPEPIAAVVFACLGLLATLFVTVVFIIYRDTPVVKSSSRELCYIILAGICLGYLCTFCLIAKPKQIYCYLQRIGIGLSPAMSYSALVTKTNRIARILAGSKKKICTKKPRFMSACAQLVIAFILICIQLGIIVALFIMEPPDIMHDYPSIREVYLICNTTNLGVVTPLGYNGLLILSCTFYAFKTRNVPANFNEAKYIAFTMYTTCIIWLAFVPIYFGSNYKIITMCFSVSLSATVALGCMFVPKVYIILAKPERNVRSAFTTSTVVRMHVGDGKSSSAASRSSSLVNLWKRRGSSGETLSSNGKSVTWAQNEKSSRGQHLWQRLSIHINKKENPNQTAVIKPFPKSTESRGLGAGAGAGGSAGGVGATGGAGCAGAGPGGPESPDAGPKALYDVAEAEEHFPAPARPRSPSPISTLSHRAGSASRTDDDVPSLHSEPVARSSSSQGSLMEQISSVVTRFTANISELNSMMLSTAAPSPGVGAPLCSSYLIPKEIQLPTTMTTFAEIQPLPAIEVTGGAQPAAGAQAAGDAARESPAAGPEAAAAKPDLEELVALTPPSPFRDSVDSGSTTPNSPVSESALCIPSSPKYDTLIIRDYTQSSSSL

For `O=C(Nc1cccc(Cl)c1)c1nccnc1Nc1cccnc1` [Example 1, 3-(Pyridin-3-ylamino)-pyrazine-2-carboxylic acid (3-chloro-phenyl)-amide], the Ki was found to be 0.054 µM.

For the compound `O=C(Nc1cccc(Cl)c1)c1nccnc1Nc1ccccc1` [Example 2, 3-Phenylamino-pyrazine-2-carboxylic acid (3-chloro-phenyl)-amide], the Ki was 0.095 µM.

Take `Cn1ccc(NC(=O)c2nccnc2Nc2cncc(F)c2)n1` [Example 3, 3-(5-Fluoro-pyridin-3-ylamino)-pyrazine-2-carboxylic acid (1-methyl-1H-pyrazol-3-yl)-amide]: the Ki was determined as 0.071 µM.

Take `Cc1cc(NC(=O)c2nccnc2Nc2ccccc2)ccn1` [Example 4, 3-Phenylamino-pyrazine-2-carboxylic acid (2-methyl-pyridin-4-yl)-amide]: the inhibition constant Ki was 0.761 µM.

Take `Cc1cc(NC(=O)c2nc(C)cnc2Nc2cncc(Cl)c2)ccn1` [Example 5, 3-(5-Chloro-pyridin-3-ylamino)-6-methyl-pyrazine-2-carboxylic acid (2-methyl-pyridin-4-yl)-amide]: the Ki was 1.63 µM.
